Laboratory results: BindingDB's records for doi:10.1016/s0960-894x(02)00004-5 (Keio University, 2002)
pKi: −log10 of the molar value.

Legend:
[1] = biological target: alpha-L-fucosidase (Bos taurus); assay: The compound was tested for the inhibitory activity against alpha-L-Fucosidase in bovine kidney
[2] = biological target: alpha-L-fucosidase (Bos taurus); assay: as above; remark: listed apart in the source

| pKi [1] | pKi [2] | SMILES |
| --- | --- | --- |
| 5.52 | 5.55 | CC1CC(O)(CN)C(O)C(O)C1O (stereo not drawn) [1-Aminomethyl-5-methyl-cyclohexane-1,2,3,4-tetraol] |
|  | 4.35 | CC1=CC(N)C(O)C(O)C1O (stereo not drawn) [6-Amino-4-methyl-cyclohex-4-ene-1,2,3-triol] |
